Among the data in patent US20170253607A1, “LONG-ACTING HIV PROTEASE INHIBITOR” (Shionogi & Co., Ltd., priority 2014, published 2017) are IC50 values, retold here.

pIC50: −log10 of the molar value.

A word on the pIC50: it is −log10 of the IC50, conventionally taken in molar units. A low value points to a high IC50.

This assay concerns the target HIV-1 PR (Human immunodeficiency virus type 1 group M subtype B, UniProt P04585). Put plainly: HIV-protease inhibitory activity assay (FRET peptide substrate). The settings on record: Test Example 1. In kind it is biochemical. The method, then: Test Example 1: HIV-Protease Inhibitory Activity Assay
The HIV-1 PR assay was performed by using a FRET (Fluorescence Resonance Energy Transfer) peptide substrate (AnaSpec, Inc., Fremont, Calif.). Initially in the intact FRET peptide, the fluorescence of HiLyte Fluor 488 is quenched by QXL 520. Upon substrate cleavage by PR, the fluorescence is recovered and can be monitored. Test compounds diluted in DMSO was plated to the wells of 384-well plate. Then, mixed with assay buffer (0.1 mol/L NaAc containing 0.5 mol/L NaCl, 1 mmol/L EDTA, 1 mmol/L DTT, and 0.05% Tween 20, pH 4.8) in the presence or absence of HIV-1 PR (0.83 ng), and let it stand for 5 minutes at room temperature. Background fluorescence intensity was measured and let it stand for another 15 minutes at room temperature. The enzyme reaction was started by adding substrate diluted in assay buffer at final concentration of 2 μmol/L, and let it stand for 60 minutes at room temperature. After 60 minutes, the fluorescence intensity was measured. Fluorescence intensity was measured with excitation and emission wavelengths of 485 nm and 535 nm, respectively.
IC50 values were determined using non-linear regression four-parameter logistic equation, y=A+((B−A)/(1+((C/x)̂D))) where A=minimum inhibition, B=maximum inhibition, C=log IC50, D=slope factor, x=concentration of compound and y=% inhibition.
`COc1ccc(S(=O)(=O)N(CC(C)C)CC(O)C(Cc2ccc(CN(C)c3ccccc3-c3sc4c(c3C(=O)O)CC(C)(C)CC4)cc2)NC(=O)OC2COC3(C)OCCC23)cc1` (centres unmarked) [Compound I-249] had a pIC50 of 8.65.

Take `COc1ccc(S(=O)(=O)N(CC(C)C)CC(O)C(Cc2ccc(OCC3CCCCC3Nc3ccc(C#N)cc3-c3sc4c(c3C(=O)O)CC(C)(C)CC4)cc2)NC(=O)OC2COC3(C)OCCC23)cc1` (centres unmarked) [Compound I-259]: the pIC50 is 7.96.

As to `COc1ccc(S(=O)(=O)N(CC(C)C)CC(O)C(Cc2ccc(N(C)CC(=O)Nc3sc4c(c3C(=O)O)CC(C)(C)CC4)cc2)NC(=O)OC2COC3(C)OCCC23)cc1` (centres unmarked) [Compound I-663], the pIC50 is 8.55.

`CC(C)CN(CC(O)C(Cc1ccc(OCc2ccc(-c3ccc(F)cc3F)cc2O)cc1)NC(=O)OC1COC2OCCC12)S(=O)(=O)c1ccc2ncsc2c1` (centres unmarked) [Compound I-813] had a pIC50 of 8.97.

Compound `COc1ccc(S(=O)(=O)N(CC(C)C)CC(O)C(Cc2ccc(NCc3ccc(OC)c(-c4sc5c(c4C(=O)O)CC(C)(C)CC5)c3)cc2)NC(=O)OC2COC3(C)OCCC23)cc1` (centres unmarked) [Compound I-293] had a pIC50 of 8.72.

Compound `COc1ccc(S(=O)(=O)N(CC(C)C)CC(O)C(Cc2ccc(NCc3cc4c(cc3-c3sc5c(c3C(=O)O)CC(C)(C)CC5)OCC(=O)N4C)cc2)NC(=O)OC2COC3(C)OCCC23)cc1` (centres unmarked) [Compound I-759] showed a pIC50 of 8.59.

Consider `COc1ccc(S(=O)(=O)N(CC(C)C)CC(O)C(Cc2ccc(C(=O)N(C)Cc3ccccc3-c3sc4c(c3C(=O)O)CC(C)(C)CC4)cc2)NC(=O)OC2COC3(C)OCCC23)cc1` (centres unmarked) [Compound I-219], for which the pIC50 was 8.69.

The compound `COc1ccc(S(=O)(=O)N(CC(C)C)CC(O)C(Cc2ccc(NCc3cc(C(F)(F)F)ccc3-c3sc4c(c3C(=O)O)CC(C)(C)CC4)cc2)NC(=O)OC2COC3OCCC23)cc1` (centres unmarked) [Compound I-868] showed a pIC50 of 8.37.

`COc1ccc(S(=O)(=O)N(CC(C)C)CC(O)C(Cc2ccc(N3Cc4ccc(-c5sc6c(c5C(=O)O)CC(C)(C)CC6)cc4C3)cc2)NC(=O)OC2COC3(C)OCCC23)cc1` (centres unmarked) [Compound I-222]: the pIC50 is 8.54.

Consider `COc1ccc(S(=O)(=O)N(CC(C)C)CC(O)C(Cc2ccc(N(C)Cc3ccncc3-c3sc4c(c3C(=O)O)CC(C)(C)CC4)cc2)NC(=O)OC2COC3(C)OCCC23)cc1` (centres unmarked) [Compound I-489], for which the pIC50 is 8.74.

With `COc1ccc(S(=O)(=O)N(CC(C)C)CC(O)C(Cc2ccc(-c3ccccc3-c3sc4c(c3C(=O)O)CC(C)(C)CC4)cc2)NC(=O)OC2COC3(C)OCCC23)cc1` (centres unmarked) [Compound I-193], the pIC50 was 8.46.

As to `COc1ccc(S(=O)(=O)N(CC(C)C)CC(O)C(Cc2ccc(NCc3ccc(Oc4ccc(-c5sc6c(c5C(=O)O)CC(C)(C)CC6)c(C)c4)cc3)cc2)NC(=O)OC2COC3(C)OCCC23)cc1` (centres unmarked) [Compound I-571], the pIC50 was 7.65.

The compound `COc1ccc(S(=O)(=O)N(CC(C)C)CC(O)C(Cc2ccc(NCc3ccc(C(F)(F)F)cc3C(=O)Nc3sc4c(c3C(=O)O)CC(C)(C)CC4)cc2)NC(=O)OC2COC3(C)OCCC23)cc1` (centres unmarked) [Compound I-690] gave a pIC50 of 8.11.

In the case of `COc1ccc(S(=O)(=O)N(CC(C)C)CC(O)C(Cc2ccc(N3CCC(c4ccc(-c5sc6c(c5C(=O)O)CC(C)(C)CC6)cc4)C3)cc2)NC(=O)OC2COC3(C)OCCC23)cc1` (centres unmarked) [Compound I-577], the pIC50 is 8.19.

`COc1ccc(S(=O)(=O)N(CC(C)C)CC(O)C(Cc2ccc(OCc3cccc(-c4sc5c(c4C(=O)O)CC(C)(C)CC5)c3C)cc2)NC(=O)OC2COC3(C)OCCC23)cc1` (centres unmarked) [Compound I-92] showed a pIC50 of 8.73.

On to `CC1(C)CCc2sc(-c3ccc(CN(CC(O)C(Cc4ccccc4)NC(=O)OC4COC5(C)OCCC45)S(=O)(=O)c4ccc5ncsc5c4)cc3)c(C(=O)O)c2C1` (centres unmarked) [Compound I-167], for which the pIC50 is 8.15.

As for `COc1ccc(S(=O)(=O)N(CC(C)C)CC(O)C(Cc2ccc(N(C)Cc3ccc(N4CCCC4=O)cc3-c3sc4c(c3C(=O)O)CC(C)(C)CC4)cc2)NC(=O)OC2COC3(C)OCCC23)cc1` (centres unmarked) [Compound I-744], the pIC50 was 8.67.
